Data reported in PMC6277767, “Broad and Region-Specific Impacts of the Synthetic Cannabinoid CP 55,940 in Adolescent and Adult Female Mouse Brains” (Frontiers in Molecular Neuroscience, 2018).

Test system: CD1 female mouse brain lipidome
Assay: Brain-region lipid levels (HPLC/MS/MS lipidomics) 2 h after single i.p. 3 mg/kg CP 55,940 vs vehicle
Assay type: in vivo
Procedure: The Bloomington Institutional Animal Care and Use Committee of Indiana University reviewed and approved the animal procedures. Female mice from the CD1 strain were utilized to match our study examining THC’s effects on the brain lipidome ([Leishman et al., 2018]). Mice were given a single i.p. injection of either 3 mg/kg CP or 1:1:18 cremophor:ethanol:saline vehicle (please refer to the section “3 mg/kg CP Is Relevant for Synthetic Cannabinoid Abuse and Has Stronger Effects on the Female Mouse Brain Lipidome During Adolescence” for a justification of dose and use of female mice). Three different age groups were given injections: PND 35 and PND 50 adolescents, and adult mice (PND 113). At least eight mice in each age group received CP and at least eight received vehicle. Matching the THC study time course ([Leishman et al., 2018]), mice were sacrificed via rapid decapitation 2 h after injection. Brains were immediately removed and flash-frozen in liquid nitrogen, and then stored at -80°C until dissections were performed. Brains were dissected on an ice-cold dissection plate into the following regions: STR, HIPP, CER, THAL, CTX, HYP, MID, and STEM. These abbreviations for these brain areas will be used exclusively when discussing the results generated by these specific dissections. Each dissected area was immediately placed in liquid nitrogen and then stored at -80°C until used for lipid extraction.
Tissue extracts were performed as previously described ([Bradshaw et al., 2006]; [Stuart et al., 2013]; [Raboune et al., 2014]; [Leishman et al., 2016a],[b], [2017], [2018]). First, samples were shock frozen in liquid nitrogen, weighed, and transferred to a centrifuge tube. The mass of the largest sample was multiplied by 50 to determine how many milliliters of HPLC-grade methanol (Fisher, Fair Lawn, NJ, United States) to add. Then, samples were spiked with 500 pmol deuterium-labeled NAGly (d8NAGly; Cayman Chemical, Ann Arbor, MI, United States). Samples were placed on ice in darkness for 2 h then individually homogenized and centrifuged at 19,000 × g for 20 min at 20°C. Supernatants were diluted with HPLC water (purified in house) to make a solution of 75% water, 25% supernatant. Lipids were partially purified on C18 solid phase extraction columns (Agilent, Palo Alto, CA, United States). A series of four elutions with 1.5 mL of 60%, 75%, 85%, and 100% methanol were collected ([Stuart et al., 2013]; [Leishman et al., 2016a],[b], [2018]).
As previously described ([Bradshaw et al., 2006]; [Tan et al., 2006]; [Smoum et al., 2010]; [Stuart et al., 2013]; [Tortoriello et al., 2013]; [Raboune et al., 2014]; [Leishman et al., 2016a],[b], [2017], [2018]), samples were analyzed using an Applied Biosystems API 3000 triple quadrupole mass spectrometer with electrospray ionization (Foster City, CA, United States). Using an Agilent XDB-C18 reversed phase analytical column and optimized mobile phase gradients, 20 μL from each elution were chromatographed. Two Shimadzu 10ADvp pumps (Columbia, MD, United States) provided the pressure for gradient elution. Mobile phase A: 20% methanol, 80% water (v/v) and 1 mM ammonium acetate (Sigma, St. Louis, MO, United States). Mobile phase B: 100% methanol, 1 mM ammonium acetate. Every method run began with 0% mobile phase B, reached 100% mobile phase B flowing at 0.2 mL/min, and gradually returned to 0% mobile phase B.
This screening library will be referred to as the lipidome when discussing data from this study. HPLC/MS/MS data were analyzed using Analyst software (Applied Biosystems) ([Bradshaw et al., 2006]; [Tan et al., 2006]; [Stuart et al., 2013]; [Tortoriello et al., 2013]; [Raboune et al., 2014]; [Leishman et al., 2016a],[b], [2017], [2018]). Chromatograms (Supplementary Figure 3) were generated by determining the retention time of analytes from the analytical column with a [M-1] or [M+1] parent peak and a fragmentation peak corresponding to the programmed values. […]

[1] = striatum, adult, 3 mg/kg CP 55,940, one-way ANOVA p .007
[2] = striatum, adult, 3 mg/kg CP 55,940, one-way ANOVA p .015
[3] = striatum, adult, 3 mg/kg CP 55,940, one-way ANOVA p .017
[4] = striatum, adult, 3 mg/kg CP 55,940, one-way ANOVA p .019
[5] = striatum, adult, 3 mg/kg CP 55,940, one-way ANOVA p .043
[6] = striatum, adult, 3 mg/kg CP 55,940, one-way ANOVA p .071
[7] = striatum, adult, 3 mg/kg CP 55,940, one-way ANOVA p .075
[8] = striatum, PND 35, 3mg/kg CP 55,940
[9] = thalamus, PND 50, 3 mg/kg CP 55,940

CCCCCCC(C)(C)c1ccc([C@@H]2C[C@H](O)CC[C@H]2CCCO)c(O)c1 [CP 55,940]
N-docosahexaenoyl ethanolamine, Direction (relative to Veh) [1]: ↓
N-docosahexaenoyl ethanolamine, Magnitude (x Veh level) [1]: 0.75 x Veh level
N-linoleoyl ethanolamine, Direction (relative to Veh) [2]: ↓
N-linoleoyl ethanolamine, Magnitude (x Veh level) [2]: 0.68 x Veh level
N-arachidonoyl ethanolamine, Direction (relative to Veh) [3]: ↓
N-arachidonoyl ethanolamine, Magnitude (x Veh level) [3]: 0.66 x Veh level
Arachidonic acid, Direction (relative to Veh) [4]: ↓
Arachidonic acid, Magnitude (x Veh level) [4]: 0.87 x Veh level
N-oleoyl ethanolamine, Direction (relative to Veh) [5]: ↓
N-oleoyl ethanolamine, Magnitude (x Veh level) [5]: 0.65 x Veh level
N-oleoyl leucine Direction (relative to Veh) [5]: ↑
N-oleoyl leucine Magnitude (x Veh level) [5]: 1.20 x Veh level
2-arachidonoyl glycerol, Direction (relative to Veh) [6]: ↓
2-arachidonoyl glycerol, Magnitude (x Veh level) [6]: 0.78 x Veh level
N-palmitoyl serine, Direction (relative to Veh) [7]: ↓
N-palmitoyl serine, Magnitude (x Veh level) [7]: 0.79 x Veh level
2-arachidonoyl glycerol: Direction (relative to Veh) [8]: ↓
2-arachidonoyl glycerol: Magnitude (x Veh level) [8]: 0.70 x Veh level
2-linoleoyl glycerol: Direction (relative to Veh) [8]: ↓
2-linoleoyl glycerol: Magnitude (x Veh level) [8]: 0.57 x Veh level
2-oleoyl glycerol: Direction (relative to Veh) [8]: ↓
2-oleoyl glycerol: Magnitude (x Veh level) [8]: 0.86 x Veh level
N-arachidonoyl GABA: Direction (relative to Veh) [8]: ↓
N-arachidonoyl GABA: Magnitude (x Veh level) [8]: 0.66 x Veh level
N-arachidonoyl alanine: Direction (relative to Veh) [8]: ↓
N-arachidonoyl alanine: Magnitude (x Veh level) [8]: 0.77 x Veh level
N-arachidonoyl glycine: Direction (relative to Veh) [8]: ↓
N-arachidonoyl glycine: Magnitude (x Veh level) [8]: 0.87 x Veh level
N-arachidonoyl phenylalanine: Direction (relative to Veh) [8]: ↓
N-arachidonoyl phenylalanine: Magnitude (x Veh level) [8]: 0.83 x Veh level
N-arachidonoyl serine: Direction (relative to Veh) [8]: ↓
N-arachidonoyl serine: Magnitude (x Veh level) [8]: 0.64 x Veh level
N-arachidonoyl taurine: Direction (relative to Veh) [8]: ↓
N-arachidonoyl taurine: Magnitude (x Veh level) [8]: 0.91 x Veh level
N-arachidonoyl tyrosine: Direction (relative to Veh) [8]: ↓
N-arachidonoyl tyrosine: Magnitude (x Veh level) [8]: 0.77 x Veh level
N-docosahexaenoyl GABA: Direction (relative to Veh) [8]: ↓
N-docosahexaenoyl GABA: Magnitude (x Veh level) [8]: 0.68 x Veh level
N-docosahexaenoyl alanine: Direction (relative to Veh) [8]: ↓
N-docosahexaenoyl alanine: Magnitude (x Veh level) [8]: 0.72 x Veh level
N-docosahexaenoyl ethanolamine: Direction (relative to Veh) [8]: ↓
N-docosahexaenoyl ethanolamine: Magnitude (x Veh level) [8]: 0.74 x Veh level
N-docosahexaenoyl leucine: Direction (relative to Veh) [8]: ↑
N-docosahexaenoyl leucine: Magnitude (x Veh level) [8]: 1.46 x Veh level
N-docosahexaenoyl serine: Direction (relative to Veh) [8]: ↓
N-docosahexaenoyl serine: Magnitude (x Veh level) [8]: 0.68 x Veh level
N-oleoyl GABA: Direction (relative to Veh) [8]: ↓
N-oleoyl GABA: Magnitude (x Veh level) [8]: 0.76 x Veh level
N-oleoyl alanine: Direction (relative to Veh) [8]: ↓
N-oleoyl alanine: Magnitude (x Veh level) [8]: 0.89 x Veh level
N-oleoyl ethanolamine: Direction (relative to Veh) [8]: ↓
N-oleoyl ethanolamine: Magnitude (x Veh level) [8]: 0.60 x Veh level
N-oleoyl glycine: Direction (relative to Veh) [8]: ↓
N-oleoyl glycine: Magnitude (x Veh level) [8]: 0.88 x Veh level
N-palmitoyl ethanolamine: Direction (relative to Veh) [8]: ↓
N-palmitoyl ethanolamine: Magnitude (x Veh level) [8]: 0.72 x Veh level
N-palmitoyl leucine: Direction (relative to Veh) [8]: ↑
N-palmitoyl leucine: Magnitude (x Veh level) [8]: 1.17 x Veh level
N-palmitoyl valine: Direction (relative to Veh) [8]: ↑
N-palmitoyl valine: Magnitude (x Veh level) [8]: 1.68 x Veh level
N-stearoyl alanine: Direction (relative to Veh) [8]: ↓
N-stearoyl alanine: Magnitude (x Veh level) [8]: 0.90 x Veh level
N-stearoyl leucine: Direction (relative to Veh) [8]: ↓
N-stearoyl leucine: Magnitude (x Veh level) [8]: 0.81 x Veh level
N-stearoyl serine: Direction (relative to Veh) [8]: ↓
N-stearoyl serine: Magnitude (x Veh level) [8]: 0.86 x Veh level
N-stearoyl valine: Direction (relative to Veh) [8]: ↑
N-stearoyl valine: Magnitude (x Veh level) [8]: 1.43 x Veh level
PGE2: Direction (relative to Veh) [8]: ↑
PGE2: Magnitude (x Veh level) [8]: 1.25 x Veh level
PGF2α: Direction (relative to Veh) [8]: ↑
PGF2α: Magnitude (x Veh level) [8]: 1.30 x Veh level
2-arachidonoyl glycerol: Direction (relative to Veh) [9]: ↓
2-arachidonoyl glycerol: Magnitude (x Veh level) [9]: 0.84 x Veh level
2-linoleoyl glycerol: Direction (relative to Veh) [9]: ↓
2-linoleoyl glycerol: Magnitude (x Veh level) [9]: 0.68 x Veh level
2-oleoyl glycerol: Direction (relative to Veh) [9]: ↓
2-oleoyl glycerol: Magnitude (x Veh level) [9]: 0.78 x Veh level
6-ketoPGF1α: Direction (relative to Veh) [9]: ↑
6-ketoPGF1α: Magnitude (x Veh level) [9]: 1.52 x Veh level
Arachidonic acid: Direction (relative to Veh) [9]: ↓
Arachidonic acid: Magnitude (x Veh level) [9]: 0.77 x Veh level
Linoleic acid: Direction (relative to Veh) [9]: ↓
Linoleic acid: Magnitude (x Veh level) [9]: 0.73 x Veh level
N-arachidonoyl GABA: Direction (relative to Veh) [9]: ↓
N-arachidonoyl GABA: Magnitude (x Veh level) [9]: 0.68 x Veh level
N-arachidonoyl ethanolamine: Direction (relative to Veh) [9]: ↓
N-arachidonoyl ethanolamine: Magnitude (x Veh level) [9]: 0.85 x Veh level
N-arachidonoyl glycine: Direction (relative to Veh) [9]: ↓
N-arachidonoyl glycine: Magnitude (x Veh level) [9]: 0.63 x Veh level
N-arachidonoyl phenylalanine: Direction (relative to Veh) [9]: ↓
N-arachidonoyl phenylalanine: Magnitude (x Veh level) [9]: 0.51 x Veh level
N-arachidonoyl taurine: Direction (relative to Veh) [9]: ↓
N-arachidonoyl taurine: Magnitude (x Veh level) [9]: 0.88 x Veh level
N-arachidonoyl tyrosine: Direction (relative to Veh) [9]: ↓
N-arachidonoyl tyrosine: Magnitude (x Veh level) [9]: 0.78 x Veh level
N-docosahexaenoyl GABA: Direction (relative to Veh) [9]: ↓
N-docosahexaenoyl GABA: Magnitude (x Veh level) [9]: 0.70 x Veh level
N-linoleoyl GABA: Direction (relative to Veh) [9]: ↓
N-linoleoyl GABA: Magnitude (x Veh level) [9]: 0.57 x Veh level
N-palmitoyl leucine: Direction (relative to Veh) [9]: ↑
N-palmitoyl leucine: Magnitude (x Veh level) [9]: 1.27 x Veh level
